Assays:
[1] = test system: normal primary NK cells, pool 1 (3 donors) (IL-2 2.5 ng/mL); test: percent inhibition of viability; higher = more inhibition; conditions: 72 h
[2] = test system: normal primary NK cells, pool 3 (3 donors) (IL-2 2.5 ng/mL); test: as above; conditions: 72 h
[3] = test system: DERL-7 (IL-2 2.5 ng/mL); test: as above; conditions: 72 h
[4] = test system: NK-92 (IL-2 2.5 ng/mL); test: as above; conditions: 72 h
[5] = test system: YT (IL-2 2.5 ng/mL); test: as above; conditions: 72 h
[6] = test system: normal primary NK cells, pool 2 (3 donors) (IL-2 2.5 ng/mL); test: as above; conditions: 72 h
[7] = test system: IMC-1 (IL-2 20 ng/mL); test: as above; conditions: 72 h
[8] = test system: SNK-6 (IL-2 2.5 ng/mL); test: as above; conditions: 72 h
[9] = test system: normal primary NK cells, pool 1 (3 donors), resting (IL-2 0 ng/mL); test: as above; conditions: 72 h
[10] = test system: KAI3 (IL-2 2.5 ng/mL); test: as above; conditions: 72 h
[11] = test system: NK-YS (IL-2 2.5 ng/mL); test: as above; conditions: 72 h
[12] = test system: NKL (IL-2 2.5 ng/mL); test: as above; conditions: 72 h
[13] = test system: KHYG-1 (IL-2 2.5 ng/mL); test: as above; conditions: 72 h
[14] = test system: normal NK cells expanded with K562-aAPC; test: as above; conditions: 72 h, IL-2 2.5 ng/mL
Protocol: (§1)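 Drug sensitivity and resistance testing on K562-aAPC-expanded normal NK cells: 5 concentrations (10-fold steps over a 10,000-fold range), 72 h at 37 °C, viability by CellTiter-Glo normalised to DMSO and benzethonium chloride controls; DSS from the fitted curve.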

[15] = test system: normal NK cells expanded with K562-aAPC; test: drug sensitivity score (DSS) (DSS units); higher = more sensitive; extreme values may be limits of the assay; conditions: 72 h; IL-2 2.5 ng/mL
Protocol: as §1

[16] = test system: normal primary NK cells, pool 1 (3 donors) (IL-2 2.5 ng/mL); test: as above; conditions: 72 h
[17] = test system: normal primary NK cells, pool 3 (3 donors) (IL-2 2.5 ng/mL); test: as above; conditions: 72 h
[18] = test system: DERL-7 (IL-2 2.5 ng/mL); test: as above; conditions: 72 h
[19] = test system: NK-92 (IL-2 2.5 ng/mL); test: as above; conditions: 72 h
[20] = test system: YT (IL-2 2.5 ng/mL); test: as above; conditions: 72 h
[21] = test system: normal primary NK cells, pool 2 (3 donors) (IL-2 2.5 ng/mL); test: as above; conditions: 72 h
[22] = test system: IMC-1 (IL-2 20 ng/mL); test: as above; conditions: 72 h
[23] = test system: SNK-6 (IL-2 2.5 ng/mL); test: as above; conditions: 72 h
[24] = test system: normal primary NK cells, pool 1 (3 donors), resting (IL-2 0 ng/mL); test: as above; conditions: 72 h
[25] = test system: KAI3 (IL-2 2.5 ng/mL); test: as above; conditions: 72 h
[26] = test system: NK-YS (IL-2 2.5 ng/mL); test: as above; conditions: 72 h
[27] = test system: NKL (IL-2 2.5 ng/mL); test: as above; conditions: 72 h
[28] = test system: KHYG-1 (IL-2 2.5 ng/mL); test: as above; conditions: 72 h

COc1cc2ncnc(Nc3ccc(F)c(Cl)c3)c2cc1OCCCN1CCOCC1 [Gefitinib] (max concentration tested 10000 nM)
percent inhibition of viability [%]
Conditions | 1 nM | 10 nM | 100 nM | 1000 nM | 10000 nM
[1] | -0.53 | -12.4 | -3.97 | -11.3 | 26.3
[2] | -15.3 | -8.24 | 11.2 | -13.2 | 40.1
[3] | 3.62 | -2.09 | 5.77 | 1.47 | 70.4
[4] | -2.12 | 5.54 | -3.03 | 4.12 | 64.8
[5] | -3.09 | 5.08 | 4.23 | 5.38 | 57.6
[6] | -22.1 | -19.1 | 6.35 | 2.61 | 39.1
[7] | -4.89 | 1.4 | 2.3 | 2.27 | 13.5
[8] | 25.8 | 34.7 | 27.6 | 9.98 | 42.4
[9] | -4.9 | -15.9 | -4.48 | -7.6 | 64.4
[10] | 0.49 | -0.54 | -4.64 | 11.8 | 56.9
[11] | -1.51 | 1.15 | 7.36 | 7.9 | 30.8
[12] | -4.33 | -6.47 | -2.03 | 12 | 62.4
[13] | -2.54 | 5.78 | 8.11 | 9.75 | 89.9
[14] | -4.93 | -2.95 | -4.74 | 12.3 | 56.2

Conditions | drug sensitivity score
[15] | 5.01
[16] | 0.66
[17] | 1.42
[18] | 4.07
[19] | 4.15
[20] | 3.98
[21] | 2.32
[22] | 0.3
[23] | 9.38
[24] | 3
[25] | 4.99
[26] | 2.2
[27] | 5.38
[28] | 6.6

O=S(=O)(c1cccc2c(O)nccc12)N1CCCNCC1 [Hydroxyfasudil] (max concentration tested 37500 nM)
percent inhibition of viability [%]
Conditions | 3.75 nM | 37.5 nM | 375 nM | 3750 nM | 37500 nM
[1] | -10.4 | -4.9 | -10.6 | -4.54 | 17.3
[2] | -6.09 | -6.32 | 12.8 | 7.6 | 21.9
[3] | 2.41 | -1.56 | -3.11 | 9.25 | 29.7
[4] | 2.93 | 2.6 | 5.94 | -2.67 | 19.6
[5] | -4.2 | 0.69 | 4.57 | -4.39 | 2.68
[6] | -5.27 | -3.13 | -1.92 | 7.54 | 31.2
[7] | -4.78 | -3.11 | 0.96 | 2.27 | 5.47
[8] | 2.11 | -9.82 | 10.9 | 4.05 | 52
[9] | -1.24 | 11.4 | 11.7 | -5.48 | 13.2
[10] | -11.8 | -3.4 | 2.23 | -8.56 | 32.2
[11] | -6.95 | -1.93 | 3.17 | -3.19 | 18.9
[12] | 3.67 | 6.42 | 10.9 | 12.7 | 31.9
[13] | -8.68 | 0.53 | 6.74 | 10.9 | 23
[14] | -7.06 | -1.95 | -4.05 | 11.7 | 18.2

Conditions | drug sensitivity score
[15] | 1.51
[16] | 0.25
[17] | 1.36
[18] | 2.59
[19] | 0.43
[20] | 0
[21] | 2.54
[22] | 0
[23] | 3.39
[24] | 0.05
[25] | 1.06
[26] | 0.37
[27] | 3.11
[28] | 1.61

O=C(O)c1ccc(O)c2ncccc12 [IOX-1] (max concentration tested 100000 nM)
percent inhibition of viability [%]
Conditions | 10 nM | 100 nM | 1000 nM | 10000 nM | 100000 nM
[1] | -3.62 | -13.1 | 0.64 | 8.14 | 36.8
[2] | -7.55 | -4.61 | -5.18 | 1.2 | 19.5
[3] | 3.2 | 6.07 | 1.59 | 7.49 | 60.9
[4] | -6.93 | 3.17 | -9.38 | 5.58 | 84.7
[5] | -3.65 | -2.89 | -3.48 | -1.62 | 93.9
[6] | -7.65 | 2.85 | -9.5 | -2.84 | 18.6
[7] | -3.09 | -5.78 | -3.15 | -12.9 | 98.3
[8] | 5.81 | 6.03 | 15.1 | 13.8 | 96.1
[9] | -3.86 | -11 | -13.3 | 21.7 | 44.1
[10] | -3.64 | -1.76 | 6.25 | 18.8 | 90.3
[11] | -2.09 | 1.71 | -3.7 | -0.87 | 90
[12] | 1.44 | -6.7 | -0.16 | 3.16 | 91.7
[13] | -4.24 | 1.11 | -3.63 | 4.25 | 97.2
[14] | 2.28 | -1.61 | -3.75 | -2.77 | 37.3

Conditions | drug sensitivity score
[15] | 1.59
[16] | 3.07
[17] | 0.69
[18] | 4.57
[19] | 5.53
[20] | 5.1
[21] | 0.36
[22] | 4.66
[23] | 7.64
[24] | 5.03
[25] | 8.02
[26] | 4.95
[27] | 5.52
[28] | 5.99

C#Cc1cccc(Nc2ncnc3cc4c(cc23)OCCOCCOCCO4)c1 [Icotinib] (max concentration tested 10000 nM)
percent inhibition of viability [%]
Conditions | 1 nM | 10 nM | 100 nM | 1000 nM | 10000 nM
[1] | 2.64 | -2.92 | -2.29 | -5.75 | 8.93
[2] | -12.7 | -5.94 | 3.15 | -6.39 | -5.24
[3] | -3.69 | 4.28 | 2.21 | -3.13 | 21.1
[4] | -11.7 | -6.9 | 8.46 | 9.17 | 60.1
[5] | -0.54 | 0.7 | 2.3 | -0.04 | 20.5
[6] | -5.53 | 5.07 | 5.9 | -0.93 | 18.9
[7] | -2.8 | -2.04 | 2.45 | 1.87 | 17.3
[8] | 8.75 | 4.17 | -5.78 | 8.65 | 12.1
[9] | 3.19 | -9.84 | 4.39 | -8.23 | 35.6
[10] | 0.88 | -3.16 | 3.15 | -4.22 | 15.3
[11] | 1.39 | -0.84 | 6.96 | 1.74 | 17.6
[12] | -8.58 | 1.33 | -2.78 | -2.73 | 7.37
[13] | 2.44 | 3.1 | 7.32 | 5.9 | 20.9
[14] | -2.8 | 5.15 | 5.26 | 7.7 | 24.2

Conditions | drug sensitivity score
[15] | 1.38
[16] | 0
[17] | 0
[18] | 0.52
[19] | 4.82
[20] | 0.63
[21] | 0.45
[22] | 0.61
[23] | 0.39
[24] | 1.28
[25] | 0.15
[26] | 0.62
[27] | 0
[28] | 0.85

O=C(Nc1ccncc1)C(=O)c1cn(Cc2ccc(Cl)cc2)c2ccccc12 [Indibulin] (max concentration tested 10000 nM)
percent inhibition of viability [%]
Conditions | 1 nM | 10 nM | 100 nM | 1000 nM | 10000 nM
[1] | -10.2 | -6.02 | -8.45 | -10.4 | -3.72
[2] | -1.93 | -8.2 | 1.19 | 5.32 | 11.4
[3] | 0.04 | 6.67 | 4.75 | 46.8 | 89.2
[4] | -6.37 | 25.8 | 53.4 | 90.8 | 88.7
[5] | -4.48 | 2.55 | 34.7 | 90.4 | 92
[6] | -0.63 | -6.55 | 0.37 | 1.94 | 2.69
[7] | -3.14 | 0.7 | 4.01 | 92.4 | 98.2
[8] | 23.1 | 63.2 | 78.4 | 84 | 80.9
[9] | -7.61 | -0.32 | 20.6 | 8.83 | 10.7
[10] | 3.69 | 14.7 | 33 | 55.2 | 49.6
[11] | -6.38 | 5.31 | 41.8 | 72.1 | 62.7
[12] | -12.2 | -11.9 | 51.8 | 86.5 | 83.6
[13] | -4.72 | 2.71 | 48.2 | 102 | 96
[14] | 0.45 | -0.15 | 0.03 | 26.6 | 49.8

Conditions | drug sensitivity score
[15] | 5.97
[16] | 0
[17] | 0.07
[18] | 10.5
[19] | 24.3
[20] | 20.8
[21] | 0
[22] | 17.3
[23] | 35
[24] | 0.77
[25] | 14.6
[26] | 18.2
[27] | 21.9
[28] | 24

Reference: the supplement of paper PMC5908809
